“And” between values parts separate entries of the source, which are not always exact repeats. Identical values can stand only once. The source made the active and inactive calls. The rule behind the calls is not given here.
Tests used:
[1] = The compound was determined for the dose (mg/kg) by rotarod test at the time of peak neurotoxic effect in mice on ip administration.; type: ADME, organism-based; details: mouse, in vivo
Mus musculus [2] = assay: The compound was tested to inhibit 50% of induced maximal electroshock seizure in mice on ip administration; type: functional
Mus musculus [3] = assay: Inhibition of s.c. pentylenetetrazole induced seizure in mice following i.p. administration.; type: functional
[4] = The compound was tested for neurologic toxicity (rotarod) test for 4 hours in mice; active at 300 mg/kg; type: organism-based; design: dose 300 mg/kg; details: mouse, in vivo
Mus musculus [5] = species on record: Mus musculus; assay: Protective index value is the ratio between TD50 and ED50 values.; type: functional
[6] = The compound was tested for neurologic toxicity (rotarod) test for 30 min in mice; active at 100 mg/kg; type: organism-based; design: dose 100 mg/kg; details: mouse, in vivo, 0.5 h
Mus musculus [7] = assay: The compound was tested for anticonvulsant activity in subcutaneous pentylenetetrazole seizure test (sc Met) for 30 min in mice; active at 300 mg/kg; type: functional, organism-based; design: dose 300 mg/kg
Mus musculus [8] = assay: The compound was tested for anticonvulsant activity in Maximal electroshock seizure test (MES) for 4 hr in mice(ip); active at 100 mg/kg; type: functional, organism-based; design: dose 100 mg/kg
Rattus norvegicus [9] = assay: The compound was tested for the effective oral dose to inhibit 50% of the anticonvulsant in rats.; type: functional
Mus musculus [10] = assay: Time of peak effect in mice following i.p. administration.; type: functional
[11] = The compound was tested for time of peak effect (TPE) in hours for its toxicity in mice on ip administration.; type: organism-based; details: mouse, in vivo
Mus musculus [12] = assay: Anticonvulsant activity in Maximal electroshock seizure test at 100 mg/kg i.p. in mice.; type: functional, organism-based; design: dose 100 mg/kg
Rattus norvegicus [13] = assay: The compound was tested for the toxic dose on oral administration.; type: functional
Rattus norvegicus [14] = species on record: Rattus norvegicus; assay: (§1) Protective index value is the ratio between ED50 and TD50; type: functional
Mus musculus [15] = assay: The compound was tested for anticonvulsant activity in subcutaneous pentylenetetrazole seizure test (sc Met) for 4 hr in mice; active at 300 mg/kg; type: functional, organism-based; design: dose 300 mg/kg
Mus musculus [16] = assay: The compound was tested for anticonvulsant activity in Maximal electroshock seizure test (MES) for 4 hr in mice(ip); no activity or toxicity at 300 mg/kg; type: functional, organism-based; design: dose 300 mg/kg
Mus musculus [17] = assay: The compound was tested for anticonvulsant activity in Maximal electroshock seizure test for 30 min in mice(ip); active at 300 mg/kg; type: functional, organism-based; design: dose 300 mg/kg
[18] = The compound was tested for neurologic toxicity (rotarod) test for 4 hours in mice; no activity or no toxicity at 300 mg/kg; type: organism-based; design: dose 300 mg/kg; details: mouse, in vivo
Mus musculus [19] = assay: The anticonvulsant activity in subcutaneous pentylenetetrazole seizure test (sc Met) for 4 hr in mice; no activity or no toxicity at 300 mg/kg; type: functional, organism-based; design: dose 300 mg/kg
[20] = The compound was tested for neurologic toxicity (rotarod) test for 30 min in mice; no activity or no toxicity at 300 mg/kg; type: organism-based; design: dose 300 mg/kg; details: mouse, in vivo, 0.5 h
Mus musculus [21] = assay: Anticonvulsant activity in subcutaneous pentylenetetrazole seizure test for 30 min in mice; No activity/toxicity at 300 mg/kg.; type: functional, organism-based; design: dose 300 mg/kg
Mus musculus [22] = assay: The compound was tested to inhibit 50% of induced maximal electroshock seizure in mice on ip administration.; type: functional
Rattus norvegicus [23] = assay: The compound was tested for the effective oral dose to inhibit 50% of the anticonvulsant in rats; type: functional
Mus musculus [24] = assay: The compound was tested for anticonvulsant activity in subcutaneous pentylenetetrazole seizure test (sc Met) for 30 min in mice; active at 100 mg/kg; type: functional, organism-based; design: dose 100 mg/kg
Rattus norvegicus [25] = assay: The compound was tested per os dose of 30 mg/kg for 1 hour for maximal electroshock test on rats; MES= 1/4; type: functional
Rattus norvegicus [26] = assay: The compound was tested per os dose of 30 mg/kg for 0.25 hours for rotarod toxicity; 0/4; type: functional
Rattus norvegicus [27] = assay: The compound was tested per os dose of 30 mg/kg for 0.5 hours for rotarod toxicity; 0/4; type: functional
[28] = The compound was tested for the toxic dose on oral administration. (Value in parenthesis indicate 95% confidence limits).; type: ADME; details: rat
Rattus norvegicus [29] = assay: The compound was tested per os dose of 30 mg/kg for 2 hours for maximal electroshock test on rats; MES= 0/4; type: functional
Rattus norvegicus [30] = assay: The compound was tested per os dose of 30 mg/kg for 4 hours for rotarod toxicity; 0/4; type: functional
Rattus norvegicus [31] = assay: The compound was tested per os dose of 30 mg/kg for 0.25 hours for maximal electroshock test on rats; MES= 4/4; type: functional
Rattus norvegicus [32] = assay: The compound was tested for the effective oral dose to inhibit 50% of the anticonvulsant in rats.(Value in parenthesis indicate 95% confidence limits).; type: functional
Mus musculus [33] = assay: The compound was tested for anticonvulsant activity in Maximal electroshock seizure test (MES) for 4 hr in mice(ip); active at 300 mg/kg; type: functional, organism-based; design: dose 300 mg/kg
Mus musculus [34] = assay: The compound was determined for the dose (mg/kg) by rotarod test at the time of peak neurotoxic effect in mice on ip administration; type: functional
Rattus norvegicus [35] = assay: The compound was tested per os dose of 30 mg/kg for 2 hours for rotarod toxicity; 0/4; type: functional
[36] = The compound was tested for time of peak effect (TPE) in hours for its activity in mice on ip administration.; type: ADME, organism-based; details: mouse, in vivo
[37] = as §1; type: functional
Rattus norvegicus [38] = assay: The compound was tested per os dose of 30 mg/kg for 1 hour for rotarod toxicity; 0/4; type: functional
Rattus norvegicus [39] = assay: The compound was tested per os dose of 30 mg/kg for 0.5 hours for maximal electroshock test on rats; MES= 2/4; type: functional
Rattus norvegicus [40] = assay: The compound was tested per os dose of 30 mg/kg for 4 hours for maximal electroshock test on rats; MES= 0/4; type: functional

Row | Structure (SMILES) | TD50 [1] [mg/kg] | ED50 (Mus musculus [2]) [mg/kg] | ED50 (Mus musculus [3]) [mg/kg] | Rotarod toxicity [4] | PI (Mus musculus [5]) | Rotarod toxicity [6] | MES (Mus musculus [8]) | Activity (Mus musculus [10]) [h] | Toxicity [11] [h] | MES (Mus musculus [12]) | TD50 (Rattus norvegicus [13]) [mg/kg] | PI (Rattus norvegicus [14]) | scMet (Mus musculus [15]) | scMet (Mus musculus [19]) | scMet (Mus musculus [24]) | also measured
1 | CCCCCc1ccc2nc(O)sc2c1 | 137 | 58.9 | 90.5 | active at 100 mg/kg | 2.3 and 1.5 | active at 100 mg/kg | active at 100 mg/kg | 0.25 | 0.5 | active at 100 mg/kg | > 120 | 2.4 | active at 300 mg/kg | – | – | scMet (Mus musculus [7]): active at 300 mg/kg; ED50 (Rattus norvegicus [9]): 50.5 mg/kg
2 | CCC(=O)c1ccc2nc(O)oc2c1 | – | – | – | – | – | – | – | – | – | – | – | – | – | No activity or no toxicity at 300 mg/kg | – | MES (Mus musculus [16]): active at 300 mg/kg; MES (Mus musculus [17]): active at 300 mg/kg; Rotarod toxicity [18]: No activity or no toxicity at 300 mg/kg; Rotarod toxicity [20]: No activity or no toxicity at 300 mg/kg; scMet (Mus musculus [21]): No activity or no toxicity at 300 mg/kg
3 | Oc1nc2ccc(Cc3ccc(F)cc3)cc2o1 | 356 | – | 218 | active at 100 mg/kg | 2.8 and 1.6 | active at 100 mg/kg | active at 100 mg/kg | 1 | 1 | active at 100 mg/kg | > 220 | 18.5 | active at 100 mg/kg | – | active at 100 mg/kg | ED50 (Mus musculus [22]): 125 mg/kg; ED50 (Rattus norvegicus [23]): 11.9 mg/kg
4 | Cn1c(=O)oc2ccccc21 | – | 50.2 | 132 | active at 100 mg/kg | – | active at 100 mg/kg | – | – | 0.25 | active at 300 mg/kg | – | – | – | active at 100 mg/kg | active at 100 mg/kg | Protected/Tested (Rattus norvegicus [25]): 1; No. of animals exhibiting toxicity / Number of animals tested (Rattus norvegicus [26]): 0; No. of animals exhibiting toxicity / Number of animals tested (Rattus norvegicus [27]): 0; TD50 [28]: > 500 mg/kg; Protected/Tested (Rattus norvegicus [29]): 0; No. of animals exhibiting toxicity / Number of animals tested (Rattus norvegicus [30]): 0; Protected/Tested (Rattus norvegicus [31]): 4; ED50 (Rattus norvegicus [32]): 30.6 mg/kg; MES (Mus musculus [33]): active at 300 mg/kg; TD50 (Mus musculus [34]): 113 mg/kg; No. of animals exhibiting toxicity / Number of animals tested (Rattus norvegicus [35]): 0; Activity [36]: 0.25 h; PI [37]: 16.4; No. of animals exhibiting toxicity / Number of animals tested (Rattus norvegicus [38]): 0; Protected/Tested (Rattus norvegicus [39]): 2; Protected/Tested (Rattus norvegicus [40]): 0
